In PubChem BioAssay (NCI):
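Interpolation was linear, between the two tested concentrations surrounding the appropriate level; five concentrations were tested over 48 hours in 96-well plates. GI50 is the concentration that inhibits growth by half. TGI is the concentration that stops growth completely.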

What was measured:
Assay in all cases: NCI-60 cell line screen, 48 h
SK-MEL-5 melanoma = system: SK-MEL-5 melanoma
786-0 renal = system: 786-0 renal
BT-549 breast = system: BT-549 breast
CCRF-CEM leukemia = system: CCRF-CEM leukemia
ACHN renal = system: ACHN renal
PC-3 prostate = system: PC-3 prostate
RXF 393 renal = system: RXF 393 renal
K-562 leukemia = system: K-562 leukemia
MDA-MB-231 breast = system: MDA-MB-231 breast
SF-268 CNS = system: SF-268 CNS

SMILES	TGI (SK-MEL-5 melanoma) [µM]	TGI (786-0 renal) [µM]	TGI (BT-549 breast) [µM]	TGI (CCRF-CEM leukemia) [µM]	TGI (ACHN renal) [µM]	TGI (PC-3 prostate) [µM]	TGI (RXF 393 renal) [µM]	TGI (K-562 leukemia) [µM]	TGI (MDA-MB-231 breast) [µM]	TGI (SF-268 CNS) [µM]	GI50 (SK-MEL-5 melanoma) [µM]	GI50 (786-0 renal) [µM]	GI50 (BT-549 breast) [µM]	GI50 (CCRF-CEM leukemia) [µM]	GI50 (ACHN renal) [µM]	GI50 (PC-3 prostate) [µM]	GI50 (RXF 393 renal) [µM]	GI50 (K-562 leukemia) [µM]	GI50 (MDA-MB-231 breast) [µM]	GI50 (SF-268 CNS) [µM]
NS(=O)(=O)c1ccc(NCc2cnc3ccccc3n2)cc1	> 100	> 100	> 100	> 100	> 100	> 100	> 100	> 100	> 100	> 100	–	–	–	–	–	–	–	–	–	–
CC1=C(C(=O)Nc2ccc3[nH]ncc3c2)C(c2ccc(Cl)c(Cl)c2)CC(=O)N1 (stereo not given)	> 25	> 25	> 25	> 25	> 25	> 25	> 25	> 25	> 25	> 25	> 25	> 25	4.99	24.2	> 25	> 20.4	8.2	> 25	15.9	9.62
COc1cc2oc(-c3ccc(O)cc3O)c(CC=C(C)C)c(=O)c2c(O)c1/C=C/C(C)C	3.06	4.53	11.4	5.07	8.12	8.2	4.61	4.64	6.17	5.52	–	–	–	–	–	–	–	–	–	–
C=C1CC[C@@H]2[C@](C)(COC(C)=O)[C@H](OC(C)=O)CC[C@@]2(C)[C@@H]1CC(Nc1ccc(S(=O)(=O)Nc2cc(C)on2)cc1)C1=CCOC1=O (stereo not given in full)	4.65	3.66	3.47	2.71	3.48	4.31	3.84	8.42	5.11	6.11	2.11	1.96	1.79	0.477	1.71	1.98	2.05	1.57	2.22	2.35
CCOc1ccc2c(C)cc(=O)oc2c1	> 100	> 100	> 100	> 100	> 100	> 100	> 100	> 100	> 100	> 100	–	–	–	–	–	–	–	–	–	–
CCCCCCC/C=C/[C@H]1O[C@]2(O)C(=O)C=C3C[C@@H](O[C@@H]4O[C@H](CO)[C@@H](O)C(O)[C@@H]4O)C[C@@H]3[C@H]2C=C1C (stereo not given in full)	8.53	7.08	5.53	4.9	4.28	11.7	2.62	3.55	5.53	10.3	4.31	2.35	1.18	1.04	1.13	1.56	0.82	1.04	1.2	4.47
O=c1c2c(c3ccccc3n1-c1ccccc1)NC(=S)NC2c1ccc(Cl)cc1 (stereo not given)	10.5	24.4	26	> 100	> 100	> 100	25.5	> 100	37.6	> 100	2.42	3.94	3.73	3.79	3.92	2.68	5.34	4.04	3.67	3.28
O=S(=O)(c1ccc(Br)cc1)N1CCN(S(=O)(=O)c2ccc(Br)cc2)CC1	> 100	> 100	> 100	> 100	> 100	> 100	> 100	> 100	> 100	> 100	–	–	–	–	–	–	–	–	–	–
C[N+](C)(CCCCCC[N+](C)(C)CCCN1C(=O)c2cc3ccccc3cc2C1=O)CCCN1C(=O)c2cc3ccccc3cc2C1=O	> 37.5	> 37.5	> 37.5	> 37.5	> 37.5	> 37.5	> 37.5	> 37.5	> 37.5	> 37.5	> 37.5	> 37.5	> 37.5	> 37.5	> 37.5	> 37.5	> 37.5	> 37.5	> 37.5	> 37.5
COC(=O)c1ccc2c(c1)C(=O)c1c-2n(C)c(=O)c2cc(OC)c(OC)cc12	> 50	> 50	> 50	> 50	> 50	> 50	26.1	> 50	> 50	> 50	> 50	21.8	> 50	> 50	> 50	> 50	0.123	> 50	21.2	> 50
COc1cccc(-n2cc(-c3nc(Nc4cc(C)[nH]n4)c4ccccc4n3)nn2)c1	4.06	9.85	13.5	16.8	7.04	11.9	8.92	14.7	15.6	13.8	1.07	2.89	7.04	2.82	0.261	3.48	1.45	2.59	3.02	5.39
C[C@]12CC[C@H]3[C@@H](CCC4=CC(=O)CC[C@@]43C)[C@@H]1CC[C@@H]2C(=O)COS(=O)(=O)c1ccc(Br)cc1	47.9	> 22.4	50.5	3.01	27.6	23	> 50.8	31.7	17.7	34.6	–	–	–	–	–	–	–	–	–	–
O=C(O)C1C2C=CC(C2)C1C(=O)O (stereo not given)	> 100	> 100	> 100	> 100	> 100	> 100	> 100	> 100	> 100	> 100	> 100	> 100	> 100	> 100	> 100	> 100	> 100	> 100	> 100	> 100
